Like-named read-outs stand apart in the source and are kept apart here.
Tests used:
[1] = test system: pooled human liver microsomes (HLM); assay: Substrate saturation profiles of MONACRA metabolism by pooled HLM, global fitting; assay type: in vitro ADME; conditions: for Km: global fitting of seven pooled HLM preparations
Description: To probe the MONACRA metabolism by the human liver P450 system, we explored the SSPs of our new fluorogenic substrate by seven different pooled HLM preparations with P450 pool composition characterized by a global proteomics toolkit. […] The first two principal components cover 99.4% of the overall differences between the individual SSPs. While the first principal component mainly reflects the differences in SSP amplitude, the second PC is responsible for the changes in the contribution of the high- and low-affinity components. Global fitting of the dataset with a combination of three Michaelis–Menten equations yielded the components with K M values of 21, 213, and 730 µM (Figure 10C). The combinations of these three Michaelis–Menten components approximate all individual SSPs of the dataset with a square correlation coefficient (R ^2) higher than 0.998.
Figure 10: Substrate saturation profiles (SSPs) of 3-(6-methoxynaphthalen-2-yl)acrylic acid (MONACRA) metabolism by seven pooled preparations of human liver microsomes (HLMs) and their global analysis. The HLM preparations used in this study and their designations are described in the “Materials and Methods” section of the article. […] These two principal components cover 99.4% of the overall differences between the SSPs. […] The substance label MONACRA is taken from the axis title, as no other label is printed.
This study used preparations of pooled HLMs from 50, 150, or 200 donors (mixed gender). The preparations CDN, DNJ, and WGP were INVITROCYP 150-Donor Human Liver Microsomes obtained from BioIVT Corporation (Westbury, NY). Lot EGW is INVITROCYP M-Class 50-Donor HLM procured from the same company. Lots 1,910,096 and 1,210,347 were XTreme 200 Mixed Gender HLM (200 donors) purchased from XenoTech LLC (Kansas City, KS), currently a part of BioIVT. Lot 2,110,263 corresponds to mixed gender HLM from 50 donors from the same company. These lots are referred to herein as X096, X347, and X263, respectively. The supplier of the HLM preparations used in our studies, BioIVT Corporation, has declared to adhere to the regulations of the Department of Health and Human Services for the protection of human subjects (45 CFR §46.116 and §46.117) and Good Clinical Practice, (ICH E6) in obtaining the samples of human tissues used for producing the preparations of human subcellular fractions available from these companies.
The MONACRA metabolism experiments were conducted with 12 MONACRA stock solutions in the Incubation Buffer (0.1 M Hepes buffer pH 7.4 containing 60 mM KCl) with concentrations ranging from 0 to 3.3 mM prepared with serial dilution. A 0.3 M stock solution of MONACRA in DMSO was diluted by the Incubation Buffer to prepare the most concentrated (3.3 mM) solution in the series. This series of stock solutions provided the MONACRA concentrations in the incubation mixture decreasing from 825 to 0 µM with a dilution factor of 1.73333 (≈√3). The procedure of preparing the multiwell plates for activity assays was similar to that described earlier for FA-based assays. The prepared plate was placed into a heater-shaker module with a PCR-plate adapter in location 1 of the OT-2 deck. Suspensions of microsomes were diluted to the desired concentration (0.02–0.1 µM P450 for recombinant enzymes and 0.3–1 mg/ml for HLM samples) and placed into all eight wells of the first row of a PCR plate (96-well semi-skirted PCR plate, BrandTech Scientific Inc., Essex, CT), 255 µl per well. The PCR plate was inserted into a pre-cooled PCR-plate cooling block (Eppendorf, Hamburg, Germany) and placed at position 5 of the OT-2 deck. An Azzota deep-well plate placed in location 6 contained 0.4 ml of 0.3 M solution trichloroacetic acid as a quenching reagent. The second row of the same plate contained 0.6 ml of 2.4 molar Na-glycine buffer, pH 10.4. […]

[2] = test system: monkey liver microsomes (MLM); assay: MONACRA O-demethylation by monkey liver microsomes, FA-AAA formaldehyde assay; assay type: in vitro ADME, cynomolgus monkey (Macaca fascicularis); conditions: sum of two Michaelis–Menten components
Description: (§1) To probe if MONACRA can be metabolized to hydroxy-naphthyl acrylic acid (HONACRA) by liver microsomes, we utilized our high-throughput fluorimetric assay of formed formaldehyde with acetoacetanylide (FA-AAA assay, [34]). In our initial experiments, we used cynomolgus monkey (Macaca fascicularis) liver microsomes (MLM).
(§2) Figure 3: O-demethylation of 3-(6-methoxynaphthalen-2-yl)acrylic acid (MONACRA) by monkey liver microsomes (MLM). […] Panel B exemplifies the substrate saturation profile of MONACRA demethylation by MLM (0.98 mg/ml) determined by formed formaldehyde with acetoacetanylide (FA-AAA) assay with 20-min incubation at 30°C. The datasets shown in the figures represent averages of the results of two individual experiments, and the error bars indicate the standard deviations.
(§3) MONACRA demethylation was monitored by quantifying the amount of formed formaldehyde using a high-throughput fluorimetric assay based on the Hantzsch reaction with acetoacetanilide. The plates were prepared as described above. The assays were executed as described earlier, except for monitoring the formation of DPDL by the spectra of its emission with excitation at 395 nm instead of the spectra of excitation, as it was described earlier. This modification of the assay procedure was done because of an ample overlap of the spectra of excitation of MONACRA and HONACRA with that of DPDL.

[3] = as above; assay type: in vitro ADME, cynomolgus monkey (Macaca fascicularis); conditions: cynomolgus monkey, liver microsomes, MLM, FA assay, 20-min incubation at 30°C
Description: as §1, §2, §3

[4] = across seven pooled HLM preparations

**Q.** Which results are given for `COc1ccc2cc(C=CC(=O)O)ccc2c1` [MONACRA, 3-(6-methoxynaphthalen-2-yl)acrylic acid]?
**A.** F 1 (fractional contribution of high-affinity phase) ([1]; HLM sample CDN): 0.1%; F 2 (fractional contribution of middle-affinity phase) ([1]; HLM sample CDN): 68.7%; F 3 (fractional contribution of low-affinity phase) ([1]; HLM sample CDN): 31.2%; F 1 (fractional contribution of high-affinity phase) ([1]; HLM sample DNJ): 0.5%; F 2 (fractional contribution of middle-affinity phase) ([1]; HLM sample DNJ): 91.6%; F 3 (fractional contribution of low-affinity phase) ([1]; HLM sample DNJ): 7.9%; F 1 (fractional contribution of high-affinity phase) ([1]; HLM sample EGW): 2.5%; F 2 (fractional contribution of middle-affinity phase) ([1]; HLM sample EGW): 97.5%; F 3 (fractional contribution of low-affinity phase) ([1]; HLM sample EGW): 0.0%; F 1 (fractional contribution of high-affinity phase) ([1]; HLM sample WGP): 0.0%; F 2 (fractional contribution of middle-affinity phase) ([1]; HLM sample WGP): 34.4%; F 3 (fractional contribution of low-affinity phase) ([1]; HLM sample WGP): 65.6%; F 1 (fractional contribution of high-affinity phase) ([1]; HLM sample X096): 9.8%; F 2 (fractional contribution of middle-affinity phase) ([1]; HLM sample X096): 0.0%; F 3 (fractional contribution of low-affinity phase) ([1]; HLM sample X096): 90.2%; F 1 (fractional contribution of high-affinity phase) ([1]; HLM sample X263): 21.7%; F 2 (fractional contribution of middle-affinity phase) ([1]; HLM sample X263): 21.5%; F 3 (fractional contribution of low-affinity phase) ([1]; HLM sample X263): 56.8%; fraction of the high-affinity phase, average [1, 4]: 5.5%; fraction of the lowest affinity component, average [1, 4]: 45.3%; fraction of the lowest affinity component, range [1, 4]: 0–90%; fraction of the middle-affinity phase, average [1, 4]: 49.2%; fraction of the middle-affinity phase, range [1, 4]: 0–100%; Km ([1]; read-out: KM of high-affinity Michaelis–Menten component): 21 µM; Km ([1]; read-out: KM of low-affinity Michaelis–Menten component): 730 µM; Km ([1]; read-out: KM of middle-affinity Michaelis–Menten component): 213 µM; total Vmax [2]: 17.2 mol FA per mol of NADPH-cytochrome P450 reductase (CPR) per minute; Km at 20 min ([3]; read-out: KM, first of two Michaelis–Menten components): 28.4 µM; Km at 20 min ([3]; read-out: KM, second of two Michaelis–Menten components): 260 µM

From PMC12191924, “A new naphthalene-based fluorogenic substrate for cytochrome P450 4A11” (Biochemical Journal, 2025)
